The nature of data set [1]: in vivo. It counts as in vivo, guinea pig. The method, then: Blood was drawn by ear puncture from the anesthetized animals and collected into EDTA containing tubes at the beginning, after 10 days, and after 3 weeks, when the animals were sacrificed. Plasma was stored at -80°C until analyzed. Lp(a) was detected in the plasma of the guinea pigs by use of SDS-polyacrylamide gels according to Neville ((1971) J. Biol. Chem. 246:6328-6334) followed by Western blotting according to Beisiegel, et al. ((1982) J. Biol. Chem. 257:13150-13156). Forty »l of plasma and 20 mg of arterial wall homogenate were applied in delipidated form per lane of the gel. The immunodetection of apo(a) was performed using a polyclonal anti-human apo(a) antibody (Immuno, Vienna, Austria) followed by a rabbit anti-sheep antibody (Sigma) and the gold-conjugated goat anti-rabbit antibody with subsequent silver enhancement (Bio-Rad). The determinations of cholesterol and triglycerides were done at California Veterinary Diagnostics (Sacramento) using the enzyme assay of Boehringer Mannheim. The amount of plasma ascorbate was determined by the dinitrophenylhydrazine method according to Schaffer, et al. ((1955) J. Biol. Chem. 212:59).
To confirm the data obtained in Example 1, a second guinea pig experiment was conducted, using 33 male animals with a mean weight of 550 g and an approximate age of 5 months. One group of 8 animals served as a control and received 40 mg ascorbate/kg BW/d (group A). To induce hypoascorbemia 16 animals were fed 2 mg ascorbate/kg BW/d (group B). Group A and half of the animals of group B (progression sub-group) were sacrificed after 5 weeks as described above. Half of group B was kept for 2 more weeks, receiving daily intraperitoneal injection of 1.3 g Na-ascorbate/kg BW/d as a daily intra peritoneal injection with the intention to reduce the extent of atherosclerosis lesions. After this regression period these animals also were sacrificed.

For data set [2], the system named is atherosclerotic lesions. Nature of the data set: Example 2: area of aortic atherosclerotic lesions in guinea pig groups. It counts as in vivo. The text has this: At necropsy the animals were anesthetized with metophase and exsanguinated. The aorta, heart and various other organs were taken for biochemical and histological analysis. The aorta was excised, the adventitial fat carefully removed, and the vessel was opened longitudinally. Subsequently the aorta was placed on a dark metric paper and a color slide was taken. The picture was projected and thereby magnified by an approximate factor of 10. The circumference of the ascending aorta, the aortic arch and thoracic aorta, as well as the atherosclerotic lesions in this area, were marked and measured with a digitalized planimetry system. The degree of atherosclerosis was expressed by the ratio of plaque area in relation to the total aortic area defined.
To confirm the data obtained in Example 1, a second guinea pig experiment was conducted, using 33 male animals with a mean weight of 550 g and an approximate age of 5 months. One group of 8 animals served as a control and received 40 mg ascorbate/kg BW/d (group A). To induce hypoascorbemia 16 animals were fed 2 mg ascorbate/kg BW/d (group B). Group A and half of the animals of group B (progression sub-group) were sacrificed after 5 weeks as described above. […]

Where [3] appears, read: Regression (after Scurvy): 2 more weeks with daily intraperitoneal 1.3 g Na-ascorbate/kg BW/d.
Setting [4] is: Scurvy (progress), group B: 2 mg ascorbate/kg BW/d, 5 weeks.

Structures are written as SMILES.

Consider `O=C1O[C@H]([C@@H](O)CO)C(O)=C1O` [Na-ascorbate], for which the “Plasma Cholesterol” value in data set [1] (setting [3]) was 33 mg/dL. Further, the concentration at 336 h in data set [1] (guinea pig, in vivo, ip, 1300 mg/kg/day) was determined as 20600 ng/mL. For the same compound, the “Atheroscl. Lesion (Percent of Aorta Thorac. Surface)” value in data set [2] (setting [3]) is recorded as 19% of Aorta Thorac. Surface.
Consider `O=C1O[C@H]([C@@H](O)CO)C(O)=C1O` [ascorbate], for which the “Plasma Cholesterol” value in data set [1] (Control, group A: 40 mg ascorbate/kg BW/d, 5 weeks) turned out to be 39 mg/dL; in data set [1] (setting [4]), 54 mg/dL. The concentration at 840 h was 3010 ng/mL in data set [1] (guinea pig, in vivo, 2 mg/kg/day) and 5030 ng/mL in data set [1] (guinea pig, in vivo, 40 mg/kg/day). Besides, the “Atheroscl. Lesion (Percent of Aorta Thorac. Surface)” value in data set [2] (setting [4]) was 25% of Aorta Thorac. Surface.

The values above are taken from patent EP0532706B1, “REDUCTION OF CARDIOVASCULAR VESSEL OCCLUSIONS WITH ASCORBATE AND LIPOPROTEIN (a) BINDING INHIBITORS” (priority 1990, dated 1991).
